According to ChEMBL document CHEMBL4368940, “Development of a novel NURR1/NOT agonist from hit to lead and candidate for the potential treatment of Parkinson's disease” (Bioorg Med Chem Lett, 2019):
Activity calls are given as the source filed them. The rule behind the calls is not given here.

What was measured:
[1] = biological target: Nuclear receptor subfamily 4 group A member 2 (Rattus norvegicus) (UniProt Q07917); test: Agonist activity at Nurr1 in rat mesencephalic primary neurons assessed as increase in tyrosine hydroxylase expression at 3 uM
[2] = Clearance in human hepatocytes assessed per million cells; format: ADME, cell-based, Hepatocyte
Cavia porcellus = test: Hemodynamic activity iv dosed anaesthetized guinea pig administered as single dose measured after 5 mins; format: ADME, organism-based; conditions: in vivo
[3] = Cardiotoxicity in iv dosed anaesthetized dog assessed as electrophysiological changes administered as single dose measured after 5 mins; format: toxicity, organism-based, Canis lupus familiaris; conditions: in vivo
Rattus norvegicus [4] = species: Rattus norvegicus; test: Neuroprotective activity in poly(I:C)-induced Sprague-Dawley rat Parkinson's disease lesion model assessed as reduction in brain gliosis; format: functional, organism-based
[5] = Cmax in C57BL/6 mouse plasma at 3 mg/kg, iv administered as single dose; format: ADME, organism-based; design: dose 3 mg/kg, route intravenous
[6] = Cardiotoxicity in iv dosed anaesthetized dog assessed as electrocardiographic changes administered as single dose measured after 5 mins; format: toxicity, organism-based, Canis lupus familiaris; conditions: in vivo
Rattus norvegicus [7] = species: Rattus norvegicus; test: Neuroprotective activity in poly(I:C)-induced Sprague-Dawley rat Parkinson's disease lesion model assessed as reduction in IL6 level; format: functional, organism-based
[8] = Apparent half-life of the terminal disposition phase in C57BL/6 mouse plasma at 3 mg/kg, iv administered as single dose; format: ADME, organism-based; conditions: in vivo
[9] = Cardiotoxicity in iv dosed anaesthetized guinea pig assessed as electrophysiological changes administered as single dose measured after 5 mins; format: toxicity, organism-based, Cavia porcellus; conditions: in vivo
[10] = AUC in C57BL/6 mouse brain at 3 mg/kg, iv administered as single dose; format: ADME, organism-based
[11] = Cmax in C57BL/6 mouse brain at 10 mg/kg, po administered as single dose; format: ADME, organism-based; design: dose 10 mg/kg, route oral
[12] = AUC in C57BL/6 mouse plasma at 3 mg/kg, iv administered as single dose; format: ADME, organism-based
[13] = biological target: Nuclear receptor subfamily 4 group A member 2 (Mus musculus) (UniProt Q06219); test: Agonist activity at Nurr1 in co-culture of mouse primary neurons and microglia assessed as inhibition of LPS-induced neurotoxicity by measuring neuroprotection at 3 uM; design: scale not given: the % may be the effect or the level left
[14] = AUC in C57BL/6 mouse plasma at 10 mg/kg, po administered as single dose; format: ADME, organism-based
[15] = Apparent half-life of the terminal disposition phase in C57BL/6 mouse brain at 10 mg/kg, po administered as single dose; format: ADME, organism-based; conditions: read-out: t1/2 lambda z (converted)
[16] = Drug level in anaesthetized dog heart administered as single iv dose; format: ADME, organism-based, Canis lupus familiaris; conditions: in vivo, read-out: Drug uptake
[17] = Apparent half-life of the terminal disposition phase in C57BL/6 mouse brain at 3 mg/kg, iv administered as single dose; format: ADME, organism-based; conditions: read-out: t1/2 lambda z (converted)
[18] = Ratio of AUC in C57BL/6 mouse brain to plasma at 3 mg/kg, iv administered as single dose; format: ADME, organism-based; conditions: read-out: Ratio AUC
[19] = Cmax in C57BL/6 mouse brain at 3 mg/kg, iv administered as single dose; format: ADME, organism-based; design: dose 3 mg/kg, route intravenous
[20] = Cmax in C57BL/6 mouse plasma at 10 mg/kg, po administered as single dose; format: ADME, organism-based; design: dose 10 mg/kg, route oral
Rattus norvegicus [21] = test: Antiinflammatory activity in Sprague-Dawley rat assessed as inhibition of LPS-induced TNFalpha release at 30 mg/kg; format: functional
[22] = Tmax in C57BL/6 mouse plasma at 10 mg/kg, po administered as single dose; format: ADME, organism-based
[23] = Ratio of AUC in C57BL/6 mouse brain to plasma at 10 mg/kg, po administered as single dose; format: ADME, organism-based; conditions: read-out: Ratio AUC
[24] = AUC in C57BL/6 mouse brain at 10 mg/kg, po administered as single dose; format: ADME, organism-based
[25] = biological target: Voltage-gated inwardly rectifying potassium channel KCNH2 (Homo sapiens, UniProt Q12809); test: Inhibition of human ERG
[26] = biological target: Nuclear receptor subfamily 4 group A member 2 (Homo sapiens, UniProt P43354); test: Agonist activity at full-length Gal4-fused NOT (unknown origin) expressed in CHO cells by luciferase reporter gene assay; format: cell-based; conditions: read-out: EC50
Canis familiaris = test: Hemodynamic activity iv dosed anaesthetized dog administered as single dose measured after 5 mins; format: ADME, organism-based, Canis lupus familiaris; conditions: in vivo
[27] = biological target: Nuclear receptor subfamily 4 group A member 2 (Mus musculus) (UniProt Q06219); test: Agonist activity at Nurr1 in mouse MG7 cells assessed as inhibition of LPS-induced IL1beta secretion at 3 uM; format: cell-based
[28] = Cardiotoxicity in iv dosed anaesthetized guinea pig assessed as electrocardiographic changes administered as single dose measured after 5 mins; format: toxicity, organism-based, Cavia porcellus; conditions: in vivo
[29] = Apparent half-life of the terminal disposition phase in C57BL/6 mouse plasma at 10 mg/kg, po administered as single dose; format: ADME, organism-based; conditions: read-out: t1/2 lambda z (converted)
[30] = Drug level in anaesthetized guinea pig heart administered as single iv dose; format: ADME, organism-based, Cavia porcellus; conditions: in vivo, read-out: Drug uptake

Chain of Nuclear receptor subfamily 4 group A member 2 (Mus musculus) (Q06219 whole entry): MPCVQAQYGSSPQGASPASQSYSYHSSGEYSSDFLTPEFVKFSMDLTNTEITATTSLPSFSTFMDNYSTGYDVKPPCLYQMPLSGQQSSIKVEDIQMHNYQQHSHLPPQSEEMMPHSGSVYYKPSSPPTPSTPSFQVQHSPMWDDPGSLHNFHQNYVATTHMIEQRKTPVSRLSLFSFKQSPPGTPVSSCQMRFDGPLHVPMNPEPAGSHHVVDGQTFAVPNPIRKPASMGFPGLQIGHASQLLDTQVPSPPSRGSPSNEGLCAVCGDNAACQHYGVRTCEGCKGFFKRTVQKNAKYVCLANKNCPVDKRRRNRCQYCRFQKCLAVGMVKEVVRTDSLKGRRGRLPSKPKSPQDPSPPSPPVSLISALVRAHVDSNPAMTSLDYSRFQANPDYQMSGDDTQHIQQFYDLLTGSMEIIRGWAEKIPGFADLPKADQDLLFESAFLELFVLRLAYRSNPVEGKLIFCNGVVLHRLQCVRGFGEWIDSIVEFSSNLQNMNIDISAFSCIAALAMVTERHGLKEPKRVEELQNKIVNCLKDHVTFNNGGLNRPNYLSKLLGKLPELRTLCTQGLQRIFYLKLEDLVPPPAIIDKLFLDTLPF
Chain of Nuclear receptor subfamily 4 group A member 2 (Rattus norvegicus) (Q07917 whole entry): as the sequence (Q06219 whole entry) above, with S134G, P182R counted along it
Chain of Voltage-gated inwardly rectifying potassium channel KCNH2 (Q12809 whole entry, the tested form may be a part): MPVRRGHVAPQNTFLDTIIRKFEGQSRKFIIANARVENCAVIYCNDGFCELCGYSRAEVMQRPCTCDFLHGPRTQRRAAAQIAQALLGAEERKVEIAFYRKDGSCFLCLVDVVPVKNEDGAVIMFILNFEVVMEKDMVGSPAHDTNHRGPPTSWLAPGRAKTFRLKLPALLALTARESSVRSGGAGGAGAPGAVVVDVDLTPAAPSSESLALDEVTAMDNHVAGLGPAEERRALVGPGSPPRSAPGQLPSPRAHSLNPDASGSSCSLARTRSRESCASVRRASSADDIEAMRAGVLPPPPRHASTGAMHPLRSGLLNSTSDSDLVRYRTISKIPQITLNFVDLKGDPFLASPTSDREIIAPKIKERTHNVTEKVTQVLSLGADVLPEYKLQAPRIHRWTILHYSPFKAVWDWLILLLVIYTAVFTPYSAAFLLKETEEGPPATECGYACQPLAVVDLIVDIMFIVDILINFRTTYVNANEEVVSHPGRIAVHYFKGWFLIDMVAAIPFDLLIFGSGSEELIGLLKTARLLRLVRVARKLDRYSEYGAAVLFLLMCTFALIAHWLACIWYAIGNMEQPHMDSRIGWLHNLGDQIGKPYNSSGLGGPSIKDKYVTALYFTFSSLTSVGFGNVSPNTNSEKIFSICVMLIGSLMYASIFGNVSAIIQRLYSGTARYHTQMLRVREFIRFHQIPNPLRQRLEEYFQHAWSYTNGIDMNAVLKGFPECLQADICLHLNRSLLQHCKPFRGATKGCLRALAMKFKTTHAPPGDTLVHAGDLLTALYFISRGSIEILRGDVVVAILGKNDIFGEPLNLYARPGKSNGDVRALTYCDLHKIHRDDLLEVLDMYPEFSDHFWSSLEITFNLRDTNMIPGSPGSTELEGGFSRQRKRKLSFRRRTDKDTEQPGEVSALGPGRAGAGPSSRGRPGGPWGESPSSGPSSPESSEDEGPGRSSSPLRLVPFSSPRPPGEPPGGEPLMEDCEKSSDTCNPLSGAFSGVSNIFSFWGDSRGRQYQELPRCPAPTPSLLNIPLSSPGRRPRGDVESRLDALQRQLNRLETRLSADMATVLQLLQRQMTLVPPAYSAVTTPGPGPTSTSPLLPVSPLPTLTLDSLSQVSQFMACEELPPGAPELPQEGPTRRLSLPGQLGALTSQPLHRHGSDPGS
Chain of Nuclear receptor subfamily 4 group A member 2 (P43354 whole entry, the tested form may be a part): as the sequence (Q06219 whole entry) above, with S131T, S134G, D354E counted along it

CC(C)(O)c1cccc(-c2ccc3nc(-c4ccc(Cl)cc4)cn3c2)c1
Activity [1]: 188 to 284% | CLH [2]: 0.051 mL/h | Activity (Cavia porcellus): Non-Toxic | Activity [3]: Non-Toxic | Activity (Rattus norvegicus [4]): Active | Cmax [5]: 4870 ng/mL | Activity [6]: Non-Toxic | Activity (Rattus norvegicus [7]): Active | t1/2 lambda z [8]: 98.4 h | Activity [9]: Non-Toxic | AUC [10]: 15000 ng·h/mL | Cmax [11]: 3080 ng/mL | AUC [12]: 20600 ng·h/mL | Activity [13]: 86 to 99% | AUC [14]: 70300 ng·h/mL | half-life [15]: 197 h | concentration [16]: 40 µM | half-life [17]: 91.2 h | Kp [18]: 0.7 | Cmax [19]: 2630 ng/mL | Cmax [20]: 4170 ng/mL | inhibition in vivo at 30 mg/kg (Rattus norvegicus [21]): 47% | Tmax [22]: 24 h | Kp [23]: 0.8 | AUC [24]: 55600 ng·h/mL | IC50 [25]: 1500 nM | EC50 [26]: 218 nM | Activity (Canis familiaris): Non-Toxic | inhibition [27]: 28 to 46% | Activity [28]: Non-Toxic | half-life [29]: 194 h | concentration [30]: ≤ 17 µM
